Data on one molecule can be found in article PMC8795197, “Safety and activity of WX-0593 (Iruplinalkib) in patients with ALK- or ROS1-rearranged advanced non-small cell lung cancer: a phase 1 dose-escalation and dose-expansion trial” (Signal Transduction and Targeted Therapy, 2022).

The nature of data set [1]: in vivo. The following applies: male.
In a further data set the test system is Ba/F3. In words: Cell proliferation inhibition assay. It is filed as cell-based.
For data set [2] the following is noted: cynomolgus monkey, in vivo.
A further data set has as its system Ba/F3 (EML4-ALK-WT). In words: Cell proliferation inhibition assay. It is filed as cell-based.
Data set [3] is described as follows: Metabolite identification in plasma. The following applies: oral WX-0593. It is filed as in vivo, SD rat. The source says: Under current experimental conditions, a total of 2 metabolites in addition to the parent drug were detected in rat plasma: a demethylation metabolite, M2 (MW = 554.23, P - CH2) and a mono-oxidation and dehydrogenation product, M6 (MW = 582.23, P + O - 2H). Based on the % peak area from mass spectrometry, the drug exists primarily as the parent drug in the plasma of both male and female rats (97.24% in females and 96.81% in males). Metabolites M2 (2.76% in females and 2.88% in males) and M6 ([…] and 0.31% in males) were both secondary metabolites. Based on the types of metabolites, it is speculated that WX-0593 is mainly metabolized through demethylation, oxidation, and dehydrogenation after oral administration in rats. There was no significant difference in metabolites between female and male rats.

Data set [4] concerns NCI-H3122 (EML4-ALK fusion gene positive) human NSCLC. In words: CDX model: efficacy and exposure in plasma, tumor, brain, lung. It is filed as in vivo. The source says: NCI-H3122 (EML4-ALK fusion gene positive) is an ALK wild type human NSCLC. […] Higher drug concentration in the lungs provides the material basis for the treatment of lung cancer.
In a further data set the test system is Ba/F3 (EML4-ALK-C1156Y). In words: Cell proliferation inhibition assay. It is filed as cell-based.
Another data set addresses hERG (Homo sapiens, UniProt Q12809). The data set can be described thus: Inhibition of hERG currents. It is filed as cell-based. The note with it: human; maximum tested dose 30 μM. Here is the method:
(§1) […]. Therefore, WX-0593 has a low risk of cardiotoxicity. There were no effects on the CNS and respiratory system in rats at doses of 3, 10, and 30 mg/kg. However, WX-0593 10 and 30 mg/kg may result in benign respiratory rate and decreases in minute ventilation in female rats. There were no effects on the cardiovascular system, blood pressure, ECG parameters or waveforms in monkeys at doses of 5, 10, and 25 mg/kg; 10 and 25 mg/kg may result in mild decreases in heart rate (within the normal range) and PR prolongation and QTc shortening associated with bradycardia within the normal range (no statistical difference when compared to the control arm). No cardiovascular system adverse reactions related to the test product were found. The human equivalent dose (using 60 kg) is 3636 mg/person in CNS, 3636 mg/person in male respiratory system and 363.6 mg/person in female respiratory system, and 607 mg/person in cardiovascular system.

The next data set has as its target hERG currents (Homo sapiens, UniProt Q12809). In words: Inhibition of hERG currents. It is filed as cell-based. The procedure:
as §1

The nature of data set [5]: in vivo. Also on record: species or system nude mice. The following applies: mouse. Here is the method:
The severely toxic dose in 10% of the animals (STD10) in rodents was > 30 mg/kg. At a dose of 10 mg/kg/day, AUC0-24h (Day 28) was 16800 h·ng/mL in males and 17300 h·ng/mL in females, which is 4.5 times and 4.7 times of the exposure at the effective dose in mice (2.5 mg/kg, AUC0-24h: 3700 h·ng/mL). At a dose of 30 mg/kg/day, AUC0-24h (Day 28) was 27100 h·ng/mL in males and 42400 h·ng/mL in females, which is 7.3 times and 11.5 times of the exposure at the effective dose in nude mice (2.5 mg/kg, AUC0-24h: 3700 h·ng/mL).

The next data set has as its system Karpas299 (NPM-ALK). The data set can be described thus: Cell proliferation inhibition assay. It is filed as cell-based.

Sequence of hERG currents (Q12809 whole entry): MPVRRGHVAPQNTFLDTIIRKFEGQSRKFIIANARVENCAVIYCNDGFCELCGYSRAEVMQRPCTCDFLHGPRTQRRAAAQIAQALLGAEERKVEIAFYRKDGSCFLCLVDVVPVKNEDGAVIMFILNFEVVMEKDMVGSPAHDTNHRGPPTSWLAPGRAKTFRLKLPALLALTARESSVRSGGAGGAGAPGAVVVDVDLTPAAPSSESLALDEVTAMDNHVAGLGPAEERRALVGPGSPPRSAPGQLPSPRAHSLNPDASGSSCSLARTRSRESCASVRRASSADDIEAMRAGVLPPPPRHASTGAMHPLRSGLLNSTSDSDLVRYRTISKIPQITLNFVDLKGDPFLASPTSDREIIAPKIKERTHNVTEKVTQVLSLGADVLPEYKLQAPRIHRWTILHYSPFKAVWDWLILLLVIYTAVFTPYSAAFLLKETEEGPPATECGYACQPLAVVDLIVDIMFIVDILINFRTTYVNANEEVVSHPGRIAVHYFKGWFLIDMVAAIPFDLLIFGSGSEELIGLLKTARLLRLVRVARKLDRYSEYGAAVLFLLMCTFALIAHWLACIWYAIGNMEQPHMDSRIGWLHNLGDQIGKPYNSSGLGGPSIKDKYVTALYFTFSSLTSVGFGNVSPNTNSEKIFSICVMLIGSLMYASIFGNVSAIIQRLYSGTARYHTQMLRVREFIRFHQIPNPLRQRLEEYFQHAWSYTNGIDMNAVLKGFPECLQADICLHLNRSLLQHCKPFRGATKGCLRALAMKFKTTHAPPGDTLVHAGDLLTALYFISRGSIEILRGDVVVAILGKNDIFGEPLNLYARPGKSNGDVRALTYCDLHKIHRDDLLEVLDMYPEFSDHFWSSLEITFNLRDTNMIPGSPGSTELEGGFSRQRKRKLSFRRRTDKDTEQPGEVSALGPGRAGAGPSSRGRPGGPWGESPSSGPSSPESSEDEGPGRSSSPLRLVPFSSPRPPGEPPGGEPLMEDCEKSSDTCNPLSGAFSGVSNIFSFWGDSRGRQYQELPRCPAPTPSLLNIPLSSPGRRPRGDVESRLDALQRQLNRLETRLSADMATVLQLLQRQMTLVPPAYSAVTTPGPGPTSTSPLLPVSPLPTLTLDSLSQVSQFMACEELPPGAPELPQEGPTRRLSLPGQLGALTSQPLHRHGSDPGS
Sequence of hERG (Q12809 whole entry): as above

For `COc1cc(N2CCC3(CCN(C)CC3)CC2)ccc1Nc1ncc(Cl)c(Nc2ccccc2P(C)(C)=O)n1` [WX-0593], the MTD in “in vivo [1]” stood at 200 mg/kg. In addition, the “IC50 relative to ALK-related cells” value with Ba/F3 is on record as “significantly higher”. Moreover, the “MTD as multiple of the effective dose in nude mice” value in data set [2] was 20 times. Also, the growth inhibition result in the data set on Ba/F3 (EML4-ALK-WT), in the data set on Ba/F3 (EML4-ALK-C1156Y) and in the data set with Karpas299 (NPM-ALK) was “significantly inhibits the growth” each time. Besides, in the data set “Mutagenicity study”, the mutagenic activity entry is “no mutagenic activity”. Besides, the results for the “% peak area from mass spectrometry in plasma” value in data set [3] (female rats) and in [3] (male rats) were 97.24% and 96.81%, respectively. Besides, in [4] (5 mg/kg each), the “drug exposure in tumor tissue relative to brigatinib” value is 2 times. The “efficacy compared with brigatinib” value in data set [4] (5 mg/kg each) is reported as “comparable”. Also, the “plasma drug exposure compared with brigatinib” value in data set [4] (5 mg/kg each) is on record as “comparable”. Also, the “drug exposure in the lungs relative to brigatinib” value in data set [4] (5 mg/kg each, 1 h after dosing) is recorded as “approximately 2 times”; in [4] (5 mg/kg each, 8 h after dosing), “approximately 3 times”. Besides, the “drug exposure in the brain relative to brigatinib” value in data set [4] (5 mg/kg each, 8 h after dosing) is given as “approximately 2 times”. The “treatment efficacy versus dose” value in data set [4] (2.5, 5, 10 mg/kg) is given as “increased with dose”. Moreover, the “rank of drug concentrations in tissues” value in [4] (1 h and 8 h after dosing, all dose arms (2.5, 5, 10 mg/kg)) is reported as “lungs > tumor > brain”. The molecule further came in with an inhibition at 30 μM at hERG of 58.1%. At hERG currents, this molecule returned a 50% inhibitory concentration (IC50) of 20 µM. The molecule also gave a hERG slope at hERG currents of 0.95. Further, the murine effective dose in “in vivo [5]” was 2.5 mg/kg. This molecule also registered an AUC(0-t) in the data set “in vivo [5]” (nude, 2.5 mg/kg) of 3700 ng·h/mL.
